According to patent US10471118B2, “Retinylamine derivitives for treatment of ocular disorders” (CASE WESTERN RESERVE UNIVERSITY, priority 2014, dated 2019):

Columns and labels:
RPE65 [1] = biological target: T1, RPE65 (Mus musculus, UniProt Q91ZQ5); experiment: In vivo RPE65 inhibition: 11-cis-retinal regeneration after photo-bleach; conditions: 1.75 μmol per mouse oral 16 h prior to photo-bleach (7000 lux, 10 min), 24 h dark
T1 sequence (Q91ZQ5 2-533 limits assumed): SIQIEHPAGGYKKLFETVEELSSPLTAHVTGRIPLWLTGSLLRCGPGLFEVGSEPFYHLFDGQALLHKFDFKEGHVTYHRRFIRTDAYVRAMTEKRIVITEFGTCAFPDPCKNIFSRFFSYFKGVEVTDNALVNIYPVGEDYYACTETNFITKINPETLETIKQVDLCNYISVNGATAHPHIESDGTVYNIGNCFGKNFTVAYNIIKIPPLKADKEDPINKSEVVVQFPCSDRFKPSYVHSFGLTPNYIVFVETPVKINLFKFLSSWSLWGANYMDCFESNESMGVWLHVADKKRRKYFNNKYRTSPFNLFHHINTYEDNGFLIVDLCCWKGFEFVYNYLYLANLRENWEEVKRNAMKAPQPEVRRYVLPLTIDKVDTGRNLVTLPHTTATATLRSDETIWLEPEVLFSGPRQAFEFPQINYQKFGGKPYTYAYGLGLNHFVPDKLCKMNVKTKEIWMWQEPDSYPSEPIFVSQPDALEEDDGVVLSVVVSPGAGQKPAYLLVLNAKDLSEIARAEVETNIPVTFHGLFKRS
Protocol: The retinylamine derivatives (31 RVG and 3b RF) or Ret-NH2 were administered by oral gavage at same mole dose 1.75 μmol per mouse into dark-adapted C57BLwild-type female mice (n=3) at 16 h prior to photo-bleach. After photo-bleach (7000 lux, 10 min), mice were kept the dark room for 24 h to allow the visual cycle to recovery. Mice were then sacrificed and eyes were extracted for analysis. Mice without treatment prior to photo-bleach were set as control. Retinoid extraction was done by manually homogenizing eyes in 1 mL of 1:1 ethanol:PBS solution containing 40 mM hydroxylamine. Retinoids were extracted in 4 mL hexane, concentrated, and reconstituted to a volume of 200 μL. Normal-phase HPLC (Agilent-Zorbax SIL; 5 μm; 4.5×250 mm; flow rate of 1.4 mL/min; 90:10 hexane:ethyl acetate (v:v); detection at 325 nm) was utilized to analyze retinoid concentrations. In vivo RPE65 inhibition was analyzed by quantifying the amount of 11-cis-retinal within each eye.

RPE65 [2] = biological target: RPE65 (Bos taurus, UniProt Q28175); experiment: Retinoid isomerase activity in RPE microsomes (11-cis-retinol production); format: biochemical, Bovine; conditions: 0.5 to 10 μM compound, 10 μM all-trans-retinol, 1 h
Protocol: To destroy endogenous retinoids, 200-μl aliquots of RPE microsomes placed in a quartz cuvette were irradiated for 5 min at 0° C. with a ChromatoUVE transilluminator (model TM-15; UVP).
All assays were performed under dim red light. 2 μl of the synthesized retinylamine derivatives (RF and RVG) (DMF, 0.5-10 mM) was added into 10 mM Bis-Tris propane buffer (pH 7.4) containing 150 μg RPE microsomes, 1% BSA, 1 mM disodium pyrophosphate and 20 μM apo Retinaldehyde-binding protein 1 (CRALBP). The resulting mixture was pre-incubated at room temperature for 5 min. Then 1 μl all-trans-retinol (DMF, 20 mM) was added. The resulting mixture was incubated at 37° C. for 1 h. Reaction was quenched by addition of 300 μl methanol, and the products were extracted with 300 μl hexanes. Production of 11-cis-retinol was quantified by normal phase HPLC with 10% (v/v) ethyl acetate in hexanes as eluent. Flow rate was 1.4 ml·min^−1 Retinoids were detected by monitoring absorbance at 325 nm and quantified base on a standard curve reflecting relation between amount of 11-cis-retinol and area under the corresponding chromatography peak.

C57BL/6J wild-type mice = experiment: ERG retinal function in C57BL/6J wild-type mice after oral gavage; format: in vivo; conditions: 1.75 μmol per mouse oral; for ERG signal compared with nontreated control: 6 h post-treatment; for ERG signal compared with untreated control: 24 h post treatment
Protocol: All ERG procedures were performed by published methods. For single-flash recording, the duration of white-light flash stimuli (from 20 μs to 1 ms) was adjusted to provide a range of illumination intensities (from −3.7 to 1.6 log cd s m-2). Three to five recordings were made at sufficient intervals between flash stimuli (from 3 s to 1 min) to allow recovery from any photobleaching effects.
Strong inhibition of retinoid cycle could cause temporary vision impairment. Electroretinograms (ERGs) were recorded to in retinal function in C57BL/6J wild-type mice at 6 and 24 h after oral gavage of RVG, RF or Ret-NH2 at a dose of 1.75 μmol per mouse.

[3] = All-trans-retinal Schiff base formation; conditions: 0.2 mM drug with all-trans-retinal in ethanol 2 h at room temperature
Protocol: Incubate Ret-NH2 and retinylamine derivatives RVG, RF (0.2 mM) with all-trans-retinal (2 mM) in ethanol 2 h at room temperature, retinyl imines separated by reverse phase HPLC were identified on the basis of both their characteristic UV-vis spectra upon protonation and spectra obtained by mass spectrometry (MS). HPLC condition: analytical C18 reverse column; 5 μm; 250 mm×4.6 mm; flow rate of 0.5 mL/min; mobile phase acetonitrile:H2O (v:v) with 0.05% trifluoroacetic acid (0-15 min acetonitrile from 50% to 100%, 15-30 min 100% acetonitrile); detection at 325 nm.

Chain of RPE65 (Bos taurus, UniProt Q28175) (Q28175 whole entry): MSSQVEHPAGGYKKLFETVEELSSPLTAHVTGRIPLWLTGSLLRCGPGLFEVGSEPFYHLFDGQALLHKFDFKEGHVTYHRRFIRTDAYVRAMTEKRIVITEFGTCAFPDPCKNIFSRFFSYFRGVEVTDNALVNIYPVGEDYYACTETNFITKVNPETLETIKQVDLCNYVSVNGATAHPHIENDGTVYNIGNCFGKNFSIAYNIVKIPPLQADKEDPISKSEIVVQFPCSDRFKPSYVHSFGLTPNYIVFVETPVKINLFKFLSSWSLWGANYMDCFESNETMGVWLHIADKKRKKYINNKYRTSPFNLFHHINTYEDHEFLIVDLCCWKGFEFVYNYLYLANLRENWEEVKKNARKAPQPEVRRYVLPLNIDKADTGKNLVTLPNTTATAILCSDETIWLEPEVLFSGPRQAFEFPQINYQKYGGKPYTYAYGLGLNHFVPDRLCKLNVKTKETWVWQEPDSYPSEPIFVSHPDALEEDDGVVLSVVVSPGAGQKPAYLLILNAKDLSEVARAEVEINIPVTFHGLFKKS

ERG signal compared with nontreated control (C57BL/6J wild-type mice) | ERG signal in the retina (C57BL/6J wild-type mice; first 24 h after the treatment) | Structure (SMILES) | regeneration of 11-cis-retinal in the eye (RPE65 [1]) | inhibition of RPE65 on 11-cis-retinol production (RPE65 [2]) | ERG signal compared with untreated control (C57BL/6J wild-type mice) | Schiff base formation with atRAL [3]
attenuated ERG signal | – | CC1=C(/C=C/C(C)=C/C=C/C(C)=C/CNC(=O)[C@@H](N)Cc2ccccc2)C(C)(C)CCC1 [RF, (S)-2-amino-N-((2E,4E,6E,8E)-3,7-dimethyl-9-(2,6,6-trimethylcyclohex-1-en-1-yl)nona-2,4,6,8-tetraen-1-yl)-3-phenylpropanamide] | faster regeneration of 11-cis-retinal in the eye, and weaker inhibition of retinoid cycle than Ret-NH2 | partial inhibition, but not in a concentration dependent manner | recover to the magnitude of the untreated control mice | able to form Schiff base with atRAL
attenuated ERG signal | – | CC1=C(/C=C/C(C)=C/C=C/C(C)=C/CNC(=O)[C@@H](NC(=O)CN)C(C)C)C(C)(C)CCC1 [RVG, (S)-2-(2-aminoacetamido)-N-((2E,4E,6E,8E)-3,7-dimethyl-9-(2,6,6-trimethylcyclohex-1-en-1-yl)nona-2,4,6,8-tetraen-1-yl)-3-methylbutanamide] | faster regeneration of 11-cis-retinal in the eye, and weaker inhibition of retinoid cycle than Ret-NH2 | did not show significant inhibition | recover to the magnitude of the untreated control mice | able to form Schiff base with atRAL
– | no significant ERG signal was detected | CC1=C(/C=C/C(C)=C/C=C/C(C)=C/CN)C(C)(C)CCC1 [Ret-NH2, (2E,4E,6E,8E)-3,7-dimethyl-9-(2,6,6-trimethylcyclohex-1-en-1-yl)nona-2,4,6,8-tetraen-1-amine] | much lower concentration of 11-cis-retinal than the untreated controls | concentration dependent inhibition of RPE65 | – | able to form Schiff base with atRAL
